Data as given in US11578077B2, “Spiro-oxazolones” (Hoffmann-La Roche Inc., priority 2013, dated 2023).

molecular target: human V1a receptor (Homo sapiens (Human), UniProt P37288); test: human V1a receptor binding studies (3H-Vasopressin, SPA beads); conditions: membranes of HEK293 cells transiently transfected with human V1a receptor, Ki by Cheng-Prusoff
Description: The human V1a receptor was cloned by RT-PCR from total human liver RNA. The coding sequence was subcloned in an expression vector after sequencing to confirm the identity of the amplified sequence. […] Cell membranes were prepared from HEK293 cells transiently transfected with the expression vector and grown in 20 liter fermenters with the following protocol.
50 g of cells are re-suspended in 30 ml freshly prepared ice cold Lysis buffer ([…] HEPES. 1 mM EDTA, 10 mM MgCl2 adjusted to pH=7.4+complete cocktail of protease inhibitor (Roche Diagnostics)). Homogenized with Polytron for 1 min and sonicated on ice for 2×2 minutes at 80% intensity (Vibracell sonicator). The preparation is centrifuged 20 min at 500 g at 4° C., the pellet is discarded and the supernatant centrifuged 1 hour at 43'000 g at 4° C. (19'000 rpm). The pellet is re-suspended in 12.5 ml Lysis buffer+12.5 ml Sucrose 20% and homogenized using a Polytron for 1-2 min. The protein concentration is determined by the Bradford method and aliquots are stored at −80° C. until use. For binding studies 60 mg Yttrium silicate SPA beads (Amersham) are mixed with an aliquot of membrane in binding buffer (50 mM Tris, 120 mM NaCl, 5 mM KCl, 2 mM CaCl2, 10 mM MgCl) for 15 minutes with mixing. 50 μl of bead/membrane mixture is then added to each well of a 96 well plate, followed by […] of 4 nM 3H-Vasopressin (American Radiolabeled Chemicals). For total binding measurement 100 μl of binding buffer are added to the respective wells, for non-specific binding 100 μl of […] cold vasopressin and for compound testing 100 μl of a serial dilution of each compound in 2% DMSO. The plate is incubated 1 h at room temperature, centrifuged 1 min at 1000 g and counted on a Packard Top-Count. Non-specific binding counts are subtracted from each well and data is normalized to the maximum specific binding set at 100%. To calculate an IC 50 the curve is fitted using a non-linear regression model (XLfit) and the Ki is calculated using the Cheng-Prussoff equation.

Sequence of human V1a receptor (P37288 whole entry): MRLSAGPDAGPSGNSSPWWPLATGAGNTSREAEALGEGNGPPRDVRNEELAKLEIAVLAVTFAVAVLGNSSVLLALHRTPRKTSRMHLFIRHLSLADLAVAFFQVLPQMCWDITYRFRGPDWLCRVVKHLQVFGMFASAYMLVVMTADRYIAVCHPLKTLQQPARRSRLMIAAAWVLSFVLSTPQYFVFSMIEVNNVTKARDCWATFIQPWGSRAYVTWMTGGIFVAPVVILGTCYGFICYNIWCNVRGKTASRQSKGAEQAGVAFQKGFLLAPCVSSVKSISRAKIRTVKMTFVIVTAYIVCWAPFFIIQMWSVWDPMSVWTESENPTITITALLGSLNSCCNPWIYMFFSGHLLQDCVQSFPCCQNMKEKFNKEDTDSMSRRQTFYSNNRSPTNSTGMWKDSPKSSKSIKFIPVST

SMILES	pKi hV1a
O=C1N=C(N2CCC3(CC2)OCc2ccccc23)OC12Cc1cnc(C(F)(F)F)cc1C2 (stereo not shown) [Example 61, 2′-(1′H,3H-spiro[2-benzofuran-1,4′-piperidin]-1′-yl)-3-(trifluoromethyl)-5,7-dihydro-4′H-spiro[cyclopenta[c]pyridine-6,5′-[1,3]oxazol]-4′-one]	8.5
O=C1OC2(CCN(C3=NC(=O)C4(CCCc5ccccc54)O3)CC2)c2ccccc21 (stereo not shown) [Example 63, 1′-(4′-oxo-3,4-dihydro-2H,4′H-spiro[naphthalene-1,5′-[1,3]oxazol]-2′-yl)-3H-spiro[2-benzofuran-1,4′-piperidin]-3-one]	6.7
COc1cccc2c1CC1(C2)OC(N2CCC3(CC2)OC(C)(C)c2ncccc23)=NC1=O (stereo not shown) [Example 68, 2′-(7,7-dimethyl-1′H,7H-spiro[furo[3,4-b]pyridine-5,4′-piperidin]-1′-yl)-4-methoxy-1,3-dihydro-4′H-spiro[indene-2,5′-[1,3]oxazol]-4′-one]	8.1
CC1(C)OC2(CCN(C3=NC(=O)C4(Cc5cccc(O)c5C4)O3)CC2)c2cccnc21 (stereo not shown) [Example 69, 2′-(7,7-dimethyl-1′H,7H-spiro[furo[3,4-b]pyridine-5,4′-piperidin]-1′-yl)-4-hydroxy-1,3-dihydro-4′H-spiro[indene-2,5′-[1,3]oxazol]-4′-one]	9.3
CC1(C)OC2(CCN(C3=NC(=O)C4(Cc5ccccc5C4)O3)CC2)c2ccc[n+]([O-])c21 [Example 70, 2′-(7,7-dimethyl-1-oxido-1′H,7H-spiro[furo[3,4-b)pyridine-5,4′-piperidin]-1′yl)-1,3-dihydro-4′H-spiro[indene-2,5′-[1,3]oxazol]-4′-one]	7.3
CC1(C)OC2(CCN(C3=NC(=O)C4(Cc5ccccc5C4)O3)CC2)c2ccc(O)nc21 [Example 72, 2′-(2-hydroxy-7,7-dimethyl-1′H,7H-spiro[furo[3,4-b]pyridine-5,4′-piperidin]-1′-yl)-1,3-dihydro-4′H-spiro[indene-2,5′-[1,3]oxazol]-4′-one]	8.5

More lines, now with the values ahead:

pKi hV1a	SMILES
7.6	O=C1N=C(N2CCC3(CC2)OCc2ccccc23)OC12Cc1cnc(CF)cc1C2 (stereo not shown) [Example 59, 3-(fluoromethyl)-2′-(1′H,3H-spiro[2-benzofuran-1,4′-piperidin]-1′-yl)-5,7-dihydro-4′H-spiro[cyclopenta[c]pyridine-6,5′-[1,3]oxazol]-4′-one]
7.7	O=C1N=C(N2CCC3(CC2)OCc2ccccc23)OC12Cc1cnc(C(F)F)cc1C2 (stereo not shown) [Example 60, 3-(difluoromethyl)-2′-(1′H,3H-spiro[2-benzofuran-1,4′-piperidin]-1′-yl)-5,7-dihydro-4′H-spiro[cyclopenta[c]pyridine-6,5′-[1,3]oxazol]-4′-one]
8.8	O=C1OC2(CCN(C3=NC(=O)C4(CCc5ccccc5C4)O3)CC2)c2ccccc21 (stereo not shown) [Example 65, 1′-(4′-oxo-3,4-dihydro-1H,4′H-spiro[naphthalene-2,5′-[1,3]oxazol]-2′-yl)-1′H,3H-spiro[2-benzofuran-1,4′-piperidin]-3-one]
10.2	CC1(C)OC2(CCN(C3=NC(=O)C4(Cc5ccccc5C4)O3)CC2)c2cc(O)cnc21 [Example 71, 2′-(3-hydroxy-7,7-dimethyl-1′H,7H-spiro[furo[3,4-b]pyridine-5,4′-piperidin]-1′-yl)-1,3-dihydro-4′H-spiro[indene-2,5′-[1,3]oxazol]-4′-one]
